Data as given in publication PMC3666979, “Eliciting Renal Failure in Mosquitoes with a Small-Molecule Inhibitor of Inward-Rectifying Potassium Channels” (PLoS ONE, 2013).
Marks after values point to notes of the source that are not given here.

Experiments:
AeKir1 [1] = target: T1, AeKir1 (Aedes aegypti, UniProt L0EQS9); assay: Whole-cell patch clamp of AeKir1 expressed in T-REx-HEK-293 cells; type: cell-based; conditions: for IC50: AeKir1-mediated currents, T-REx-HEK-293 cells
Experimental: T-REx-HEK293-AeKir1 cells were voltage clamped in the whole-cell configuration of the patch clamp technique after overnight induction with tetracycline (1 µg/ml). Patch electrodes were pulled from silanized 1.5 mm outer diameter borosilicate microhematocrit tubes using a Narishige PP-830 two-stage puller. Electrode resistance ranged from 2.5 to 3.5 MΩ when filled with the following intracellular solution (in mM): 135 KCl, 2 MgCl2, 1 EGTA, 10 HEPES free acid, 2 Na2ATP (Roche, Indianapolis, IN), pH 7.3, 275 mOsm. The standard bath solution contained (in mM): 135 NaCl, 5 KCl, 2 CaCl2, 1 MgCl2, 5 glucose, 10 HEPES free acid, pH 7.4, 290 mOsm. The high-K^+ bath contained (in mM): 90 NaCl, 50 KCl, 2 CaCl2, 1 MgCl2, 5 glucose, and 10 HEPES-free acid, pH 7.4, 290 mOsmol. Whole-cell currents were recorded under voltage-clamp conditions using an Axopatch 200B amplifier (Molecular Devices, Sunnyvale, CA). Electrical connections to the amplifier were made using Ag/AgCl wires and 3 M KCl/agar bridges. Electrophysiological data were collected at 5 kHz and filtered at 1 kHz. Data acquisition and analysis were performed using pClamp 9.2 software (Axon Instruments). After achieving stable whole-cell currents, VU573 or VU342 was applied intermittently or continuously for 2 to 10 min, followed by application of 2 mM BaCl2. All recordings were made at room temperature (20–23°C).

[2] = test system: principal cells of isolated Malpighian tubules; assay: Two-electrode voltage clamp of principal cells in isolated Malpighian tubules; type: cell-based, Aedes aegypti; conditions: for Rpc (kΩ) / Vbl (mV): VU573 10 µM or barium 5 mM, means ± SEM
Experimental: The basolateral membrane voltage (Vbl) and input resistance (Rpc) of principal cells were measured in isolated Malpighian tubules using two-electrode voltage clamping, as described previously. In each experiment, a single principal cell near the distal (blind) end of the tubule was impaled with two glass microelectrodes: one measured Vbl and the other injected current (Im). The Rpc of the impaled cell was calculated from current-voltage plots that were generated via voltage clamping (see ref. [25] for details). After recording a steady-state Vbl and Rpc (control) from the impaled cell, either VU573 (10 µM) or BaCl2 (5 mM) was added to the peritubular bath. The resulting Vbl and Rpc (treatment) were measured again upon reaching a new steady-state (usually 1–2 min later).
(§1) Data were analyzed using Prism 5 for Windows (Graphpad Software) and Excel (Microsoft Corp). To compare the rates of fluid secretion among control, vehicle, VU573, and VU342 treatments, a one-way ANOVA was performed with a Newman-Keuls posttest. To compare the Vbl and Rpc values of principal cells between control and treatment periods a paired t-test was performed.

[3] = test system: isolated Malpighian tubules; assay: Fluid secretion by isolated Malpighian tubules (Ramsay method); parameters: species or system Aedes aegypti; conditions: 10 µM in peritubular bath, after 2 hours, high-potassium Ringer
Experimental: Fluid secretion rates from isolated Malpighian tubules (Ae. aegypti) were measured in vitro using the method described in [25], which is modified from that of Ramsay. In brief, isolated tubules were bathed in a 50 µl drop of a mosquito Ringer solution with elevated K^+ (see composition below), which was then covered with light mineral oil. A glass hook was used to pull the open proximal end of the tubule into the mineral oil where fluid was secreted. The diameter of the droplet was measured to calculate the secreted volumes.
In one set of tubules, the initial spontaneous rate of fluid secretion was calculated during the first 30 min (control). In another set of tubules, the rates of fluid secretion were determined 2 h after adding one of the following to the peritubular bath: the vehicle (0.05% DMSO), VU573 (10 µM), or VU342 (10 µM). The Ringer solution consisted of the following in mM: 119.4 NaCl, 34 KCl, 25 HEPES, 1.8 NaHCO3, 1.7 CaCl2, and 1.0 MgSO4, pH 7.1.
as §1

[4] = test system: adult female mosquitoes (Ae. aegypti); assay: Mosquito mortality after 900 nl Na+- or K+-PBS injection; type: in vivo, Aedes aegypti
Experimental: A similar approach was used to determine the toxicity of VU573 after a stress to hemolymph Na^+ or K^+ homeostasis (Figure 2F). However, in these experiments each mosquito was injected with 900 nl of fluid (100 nl/s) and the mosquitoes were not given access to sucrose. The injected fluid was a Na^+-PBS or K^+-PBS containing 1.1% DMSO and 0.77 mM of VU573. Vehicle controls received the respective PBS with DMSO alone. The K^+-PBS consisted of the following in mM: 2.7 NaCl, 137 KCl, 2 Na2HPO4, and 10 KH2PO4 (pH 7.5).

[5] = test system: adult female Anopheles gambiae; assay: Mosquito toxicology: incapacitation 24 h after injection (69 nl); type: in vivo; conditions: 69 nl Na+-PBS with 10 mM
Experimental: (§2) Mosquitoes were first anesthetized on ice and then injected with 69 nl of fluid (see below) using a pulled-glass capillary attached to a nanoliter injector (Nanoject II, Drummond Scientific Company, Broomall, PA). The injected fluid was a sodium-based phosphate-buffered saline (Na^+-PBS) containing 15% DMSO and various concentrations of VU573 or VU342 to deliver the doses indicated in Figures 2A, 2C, and S3. The Na^+-PBS consisted of the following in mM: 137 NaCl, 2.7 KCl, 10 Na2HPO4, and 2 KH2PO4 (pH 7.5). After injection, the mosquitoes were placed in a small cage (10 females per cage) within a rearing chamber (28°C, 80% relative humidity, 12∶12 light∶dark) and allowed free access to a solution of 10% sucrose. The mosquitoes were observed 24 h after injection.
(§3) Data were analyzed using Prism 5 for Windows (Graphpad Software). To generate a dose-response curve for VU573, the doses (x-axis) were log transformed and then a non-linear curve was fitted to the data using the ‘log(agonist) vs. response’ algorithm. An ED50 was calculated from this curve. To compare 1) the incapacitating effects among the vehicle, VU573, and VU342 treatments, and 2) the rates of urine excretion among the control, vehicle, VU573, and VU342 treatments, one-way ANOVAs were performed with Newman-Keuls posttests. To compare the incapacitating effects between the vehicle and VU573 within each mosquito species, a paired t-test was used.
(§4) Supplementary file pone.0064905.s003.tif: Figure S3 Incapacitating effects of VU573 in three species of mosquitoes. Adult female mosquitoes were injected with Na^+- PBS (69 nl) containing the vehicle (15% DMSO) or VU573 (10 mM). ‘% Incapacitated’ refers to the proportion of mosquitoes that are flightless or dead within 24 h after injection. Values are means ± SEM (n = 4 independent trials of 10 mosquitoes). Statistical differences between vehicle and VU573-treated mosquitoes were determined by a paired t-test for each species. […]

[6] = test system: adult female Culex pipiens; assay: as above; type: in vivo; conditions: 69 nl Na+-PBS with 10 mM
Experimental: as §2, §3, §4

[7] = test system: adult female Aedes albopictus; assay: as above; type: in vivo; conditions: 69 nl Na+-PBS with 10 mM
Experimental: as §2, §3, §4

[8] = test system: adult female mosquitoes (Aedes aegypti); assay: Mosquito toxicology: incapacitation 24 h after intrathoracic injection (69 nl); type: in vivo; conditions: for mosquitoes bloated (retained fluid) / % Incapacitated (flightless or dead): 69 nl of 10 mM in PBS/15% DMSO; for mosquitoes bloated (retained fluid): 24 h; for % Incapacitated (flightless or dead): within 24 hours
Experimental: as §2, §3

[9] = test system: intact mosquitoes (Ae. aegypti); assay: Urine excretion rate of intact mosquitoes after 900 nl HBS injection; type: in vivo, Aedes aegypti; conditions: 2 h
Experimental: Urine excretion rates from intact mosquitoes (Ae. aegypti) were measured using a method modified from the laboratory of Hansen. After anesthetizing mosquitoes on ice they were injected as described above with 900 nl of fluid (100 nl/s). The injected fluid was one of two HEPES-buffered saline (HBS) solutions containing 1.8% DMSO with 0.77 mM VU573 or 0.77 mM VU342. Vehicle controls received the respective HBS with DMSO alone. The Na^+-HBS consisted of the following in mM: 146 NaCl, 4.2 N-methyl-D-glucammonium (NMDG)-Cl, and 25 mM HEPES (pH 7.5). The K^+-HBS consisted of the following in mM: 10 mM NaCl, 75 mM KCl, 65.2 mM NMDG-Cl, and 25 mM HEPES (pH 7.5). After injection, mosquitoes were placed immediately in a graduated, packed-cell volume tube (MidSci, St. Louis, MO; 3 mosquitoes per tube) at room temperature. The mosquitoes were removed from the tubes with forceps after 2 h and the excreted urine was centrifuged into the graduated column of the tube for measurement. Uninjected control mosquitoes were handled exactly as above without the injection step. Data were analyzed using Prism 5 for Windows (Graphpad Software). To generate a dose-response curve for VU573, the doses (x-axis) were log transformed and then a non-linear curve was fitted to the data using the ‘log(agonist) vs. response’ algorithm. An ED50 was calculated from this curve. To compare 1) the incapacitating effects among the vehicle, VU573, and VU342 treatments, and 2) the rates of urine excretion among the control, vehicle, VU573, and VU342 treatments, one-way ANOVAs were performed with Newman-Keuls posttests. To compare the incapacitating effects between the vehicle and VU573 within each mosquito species, a paired t-test was used.

AeKir1 [10] = target: T1, AeKir1; assay: Thallium (Tl+) flux assay of AeKir1 in T-REx-HEK-293 cells; type: cell-based; conditions: AeKir1-mediated Tl+ flux, means ± SEM
Experimental: Compound master antagonist plates were created by serial diluting compounds 1∶3 from 30 mM stocks in 100% DMSO using the BRAVO liquid handler (Agilent Technologies, Santa Clara, CA). Assay daughter plates were created using the ECHO 555 liquid hander (Labcyte, Sunnyvale, CA), transferring 240 nl from the master plate to the daughter plate for each well followed by addition of 40 µl of assay buffer resulting in antagonist compound concentration response curves starting at 200 µM (2× final concentration). […] Cell plates and daughter compound plates were loaded onto a kinetic imaging plate reader (FDSS 6000; Hamamatsu Corporation, Bridgewater, NJ). […] Appropriate baseline readings were taken (10 images at 1 Hz; excitation, 470±20 nm; emission, 540±30 nm) and 20 µl test compounds were added followed by 50 images at 1 Hz additional baseline. Following a 20 minute incubation period, baseline readings were taken for 10 seconds followed by addition of 10 µl of Tl^+ stimulus buffer. […] Data were analyzed using Excel (Microsoft Corp, Redmond, WA). […] The slope of the fluorescence increase beginning 5 s after Tl^+ addition and ending 15 s after Tl^+ addition was calculated. […] Potencies were calculated from fits using a four parameter logistic equation.

[11] = dose-response experiment, 24 h after injection
[12] = 10 µM peritubular, change vs control
[13] = 900 nl K+-HBS containing 0.77 mM compound
[14] = 900 nl Na+-HBS containing 0.77 mM compound

T1 sequence (L0EQS9 entry or part of it): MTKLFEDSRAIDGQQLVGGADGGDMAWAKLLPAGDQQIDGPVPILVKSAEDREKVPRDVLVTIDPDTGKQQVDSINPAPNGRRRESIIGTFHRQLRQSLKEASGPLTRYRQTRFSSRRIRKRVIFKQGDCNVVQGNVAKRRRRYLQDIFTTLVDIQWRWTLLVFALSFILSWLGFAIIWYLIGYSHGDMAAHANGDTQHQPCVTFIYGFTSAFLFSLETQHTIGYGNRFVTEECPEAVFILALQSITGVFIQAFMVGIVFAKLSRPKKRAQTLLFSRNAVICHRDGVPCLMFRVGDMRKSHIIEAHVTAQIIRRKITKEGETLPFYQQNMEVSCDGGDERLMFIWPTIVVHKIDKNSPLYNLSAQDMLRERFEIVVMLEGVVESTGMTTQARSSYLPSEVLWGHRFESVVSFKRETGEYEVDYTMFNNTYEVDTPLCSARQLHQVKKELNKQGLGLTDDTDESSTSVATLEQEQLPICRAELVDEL

SMILES | IC50 (AeKir1 [1]) [µM] | Rpc (kΩ) [2] | Vbl (mV) [2] | rate of fluid secretion [3] | mosquitoes bloated (retained fluid) [8] | % Incapacitated (flightless or dead) [8] | rate of urine excretion [9, 13] | rate of urine excretion [9, 14] [nL/min] | other results
[Ba+2].[Cl-].[Cl-] [Barium, BaCl2, reference compound] | 10 | 322.8±31.0 ^d kΩ | −59.3±3.3 ^c mV | – | – | – | – | – | –
Cc1ccc(OCC(O)Cn2c(=N)n(Cc3ccccc3)c3ccccc32)cc1 (centres unmarked) [VU573] | 5.14 ± 1.2 | 255.3±15.4 ^a kΩ | −52.4±4.5 ^b mV | 0.26 nL/min | 10% | ~100% | 0.73 nL/min | 2.14 | mortality compared to vehicle ([4]; 900 nl K+-PBS with 0.77 mM): significantly increases mortality; mortality compared to vehicle ([4]; 900 nl Na+-PBS with 0.77 mM): does not significantly increase mortality; flightlessness ([4]; 900 nl Na+-PBS with 0.77 mM, within 24 hours): renders them flightless; incapacitating effect [5]: incapacitates these mosquitoes; incapacitating effect [6]: incapacitates these mosquitoes; incapacitating effect [7]: incapacitates these mosquitoes; proportion of incapacitated mosquitoes that were dead [8, 11]: 7.7%; proportion of incapacitated mosquitoes that were flightless [8, 11]: 92.3%; proportion of incapacitated mosquitoes with greatly distended abdomens (bloated) [8, 11]: 3.6%; ED50 (incapacitated: flightless or dead) ([8]; within 24 h after injection of 69 nl PBS/15% DMSO into hemolymph): 53.6 pmol; hyperpolarization of basolateral membrane voltage (Vbl) [2, 12]: 7.0 mV; increase of input resistance (Rpc) [2, 12]: 5.7 kΩ; IC50 (AeKir1 [10]): 15 µM
N=c1n(Cc2ccccc2)c2ccccc2n1CC(O)CN1CCOCC1 (centres unmarked) [VU342] | 112 ± 1.1 | – | – | no effect on the rate of fluid secretion | none | less than 20% | unaffected | 5.7 | times less potent than VU573 at inhibiting AeKir1 (AeKir1 [1]; ratio of IC50): 22 times; maximal inhibition of AeKir1 (AeKir1 [1]; requires 300 µM): ~65%
